Data: ChEMBL document CHEMBL3632489, “Inhibitory kinetics of novel 2,3-dihydro-1H-inden-1-one chalcone-like derivatives on mushroom tyrosinase” (Bioorg Med Chem Lett, 2015)
Active and inactive are the calls of the source. The calls are words filed in the database; no cut-off is given here.

Tests used:
[1] = biological target: T1, Tyrosinase (Agaricus bisporus) (UniProt O42713); assay: Potency index, ratio of IC50 for kojic acid to IC50 for test compound for inhibition of mushroom tyrosinase diphenolase activity
T1 sequence (whole entry): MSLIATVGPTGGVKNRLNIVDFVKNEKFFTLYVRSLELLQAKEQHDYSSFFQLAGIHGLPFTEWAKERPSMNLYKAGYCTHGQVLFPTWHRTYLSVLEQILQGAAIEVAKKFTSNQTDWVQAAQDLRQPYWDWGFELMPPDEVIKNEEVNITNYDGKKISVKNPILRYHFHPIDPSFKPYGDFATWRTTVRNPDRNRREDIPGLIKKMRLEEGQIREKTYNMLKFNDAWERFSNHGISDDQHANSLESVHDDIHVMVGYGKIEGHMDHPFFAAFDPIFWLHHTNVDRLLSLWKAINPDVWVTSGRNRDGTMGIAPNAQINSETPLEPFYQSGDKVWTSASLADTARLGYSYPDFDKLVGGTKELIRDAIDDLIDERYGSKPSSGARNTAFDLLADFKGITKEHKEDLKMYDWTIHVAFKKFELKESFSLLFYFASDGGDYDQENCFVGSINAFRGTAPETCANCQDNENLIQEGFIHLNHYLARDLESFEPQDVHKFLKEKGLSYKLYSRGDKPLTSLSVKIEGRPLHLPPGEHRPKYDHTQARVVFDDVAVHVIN

[2] = biological target: T1, Tyrosinase (Agaricus bisporus); assay: Competitive inhibition of mushroom tyrosinase diphenolase activity using L-DOPA as substrate at 1.25 to 20 uM by Lineweaver Burk plot analysis
[3] = biological target: T1, Tyrosinase (Agaricus bisporus); assay: Reversible inhibition of mushroom tyrosinase diphenolase activity using L-DOPA as substrate at 0.25 to 2.0 uM
[4] = biological target: T2, Tyrosinase (Agaricus bisporus, UniProt O42713)
T2 sequence (O42713 whole entry): T1 sequence (whole entry)

[5] = biological target: T1, Tyrosinase (Agaricus bisporus); assay: Inhibition of mushroom tyrosinase diphenolase activity using L-DOPA as substrate
[6] = biological target: T2, Tyrosinase; remark: listed apart in the source
Description: Competitive inhibition of mushroom tyrosinase polyphenol oxidase activity using L-DOPA as substrate by Dixon plot analysis

Ratio IC50 [1]	inhibition [2]	inhibition [3]	IC50 [4]	inhibition [5]	Ki [6]	Structure (SMILES)
2.23	Active	Active	12.3 µM	Dose-dependent effect	10.3 µM	O=C1/C(=C\c2ccc(O)cc2O)Cc2ccccc21
3.35	Active	Active	8.2 µM	Dose-dependent effect	8.7 µM	O=C1/C(=C\c2ccc(O)c(O)c2)Cc2ccccc21
